According to patent US20220119354A1, “DIAMINO-SUBSTITUTED PYRIDINES AND PYRIMIDINES AS HERBICIDES” (FMC Corporation, priority 2019, published 2022):

Key:
Format in all cases: in vivo
[1] = tested on: barnyardgrass (Echinochloa crus-galli); assay: Test A preemergence, barnyardgrass; settings: 0 to 100 scale
How it was run: (§1)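 Pots of loam–sand mix; preemergence directed soil spray at sowing, postemergence spray at one- to two-leaf stage. Readout: visual injury vs untreated controls, ~10 d, 0–100 scale.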

kochia (Kochia scoparia) [2] = assay: Test A preemergence, kochia; settings: 0 to 100 scale
How it was run: as §1

[3] = tested on: ragweed (common ragweed, Ambrosia elatior); assay: Test A preemergence, ragweed; settings: 0 to 100 scale
How it was run: as §1

[4] = tested on: ryegrass, Italian (Lolium multiflorum); assay: Test A preemergence, Italian ryegrass; settings: 0 to 100 scale
How it was run: as §1

[5] = tested on: foxtail, giant (Setaria faberii); assay: Test A preemergence, giant foxtail; settings: 0 to 100 scale
How it was run: as §1

[6] = tested on: pigweed (Amaranthus retroflexus); assay: Test A preemergence, pigweed; settings: 0 to 100 scale
How it was run: as §1

[7] = tested on: barnyardgrass (Echinochloa crus-galli); assay: Test A postemergence, barnyardgrass; settings: 0 to 100 scale
How it was run: as §1

kochia (Kochia scoparia) [8] = assay: Test A postemergence, kochia; settings: 0 to 100 scale
How it was run: as §1

[9] = tested on: ragweed (common ragweed, Ambrosia elatior); assay: Test A postemergence, ragweed; settings: 0 to 100 scale
How it was run: as §1

[10] = tested on: ryegrass, Italian (Lolium multiflorum); assay: Test A postemergence, Italian ryegrass; settings: 0 to 100 scale
How it was run: as §1

[11] = tested on: foxtail, giant (Setaria faberii); assay: Test A postemergence, giant foxtail; settings: 0 to 100 scale
How it was run: as §1

[12] = tested on: pigweed (Amaranthus retroflexus); assay: Test A postemergence, pigweed; settings: 0 to 100 scale
How it was run: as §1

[13] = tested on: wheat (Triticum aestivum); assay: Test A postemergence, wheat; settings: 0 to 100 scale
How it was run: as §1

corn (Zea mays) = assay: Test A postemergence, corn; settings: 0 to 100 scale
How it was run: as §1

[14] = tested on: blackgrass (Alopecurus myosuroides); assay: Test A postemergence, blackgrass; settings: 0 to 100 scale
How it was run: as §1

[15] = tested on: galium (catchweed bedstraw, Galium aparine); assay: Test A postemergence, galium; settings: 0 to 100 scale
How it was run: as §1

rice (Oryza sativa) = assay: Test B flooded paddy test, rice; settings: Flood, 250 g ai/ha, applied to paddy water, 2-leaf stage, visual evaluation after 13 to 15 d
How it was run: (§2)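 Application was made into paddy water of pots flooded 3 cm deep at treatment, with seedlings at the 2-leaf stage. That flood level was kept throughout, and plants stayed under glass 13 to 15 d before visual assessment on a 0–100 control scale.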

[16] = tested on: sedge, umbrella (small-flower umbrella sedge, Cyperus difformis); assay: Test B flooded paddy test, umbrella sedge; settings: Flood, 250 g ai/ha, applied to paddy water, 2-leaf stage, visual evaluation after 13 to 15 d
How it was run: as §2

[17] = tested on: ducksalad (Heteranthera limosa); assay: Test B flooded paddy test, ducksalad; settings: Flood, 250 g ai/ha, applied to paddy water, 2-leaf stage, visual evaluation after 13 to 15 d
How it was run: as §2

[18] = tested on: barnyardgrass (Echinochloa crus-galli); assay: Test B flooded paddy test, barnyardgrass; settings: Flood, 250 g ai/ha, applied to paddy water, 2-leaf stage, visual evaluation after 13 to 15 d
How it was run: as §2

Cc1cc2cc([C@@H](C)Nc3ncc(C(F)(F)F)c(N)n3)oc2cc1C [Compound 11]
Plant response rating, Barnyardgrass ([1]; 125 g ai/ha): 20
Plant response rating, Barnyardgrass ([1]; 500 g ai/ha): 70
Plant response rating, Kochia (kochia (Kochia scoparia) [2]; 125 g ai/ha): 0
Plant response rating, Kochia (kochia (Kochia scoparia) [2]; 500 g ai/ha): 10
Plant response rating, Ragweed ([3]; 125 g ai/ha): 0
Plant response rating, Ragweed ([3]; 500 g ai/ha): 90
Plant response rating, Ryegrass, Italian ([4]; 125 g ai/ha): 20
Plant response rating, Ryegrass, Italian ([4]; 500 g ai/ha): 30
Plant response rating, Foxtail, Giant ([5]; 125 g ai/ha): 40
Plant response rating, Foxtail, Giant ([5]; 500 g ai/ha): 80
Plant response rating, Pigweed ([6]; 125 g ai/ha): 20
Plant response rating, Pigweed ([6]; 500 g ai/ha): 100
Plant response rating, Barnyardgrass ([7]; 125 g ai/ha): 20
Plant response rating, Barnyardgrass ([7]; 500 g ai/ha): 30
Plant response rating, Kochia (kochia (Kochia scoparia) [8]; 125 g ai/ha): 30
Plant response rating, Kochia (kochia (Kochia scoparia) [8]; 500 g ai/ha): 70
Plant response rating, Ragweed ([9]; 125 g ai/ha): 40
Plant response rating, Ragweed ([9]; 500 g ai/ha): 80
Plant response rating, Ryegrass, Italian ([10]; 125 g ai/ha): 0
Plant response rating, Ryegrass, Italian ([10]; 500 g ai/ha): 0
Plant response rating, Foxtail, Giant ([11]; 125 g ai/ha): 0
Plant response rating, Foxtail, Giant ([11]; 500 g ai/ha): 50
Plant response rating, Pigweed ([12]; 125 g ai/ha): 80
Plant response rating, Pigweed ([12]; 500 g ai/ha): 80
Plant response rating, Wheat ([13]; 125 g ai/ha): 0
Plant response rating, Wheat ([13]; 500 g ai/ha): 0
Plant response rating, Corn (corn (Zea mays); 125 g ai/ha): 40
Plant response rating, Corn (corn (Zea mays); 500 g ai/ha): 0
Plant response rating, Blackgrass ([14]; 125 g ai/ha): 0
Plant response rating, Blackgrass ([14]; 500 g ai/ha): 20
Plant response rating, Galium ([15]; 125 g ai/ha): 50
Plant response rating, Galium ([15]; 500 g ai/ha): 70
Plant response rating, Rice (0 to 100 scale, 0 is no effect, 100 is complete control) (rice (Oryza sativa)): 0
Plant response rating, Sedge, Umbrella (0 to 100 scale, 0 is no effect, 100 is complete control) [16]: 0
Plant response rating, Ducksalad (0 to 100 scale, 0 is no effect, 100 is complete control) [17]: 0
Plant response rating, Barnyardgrass (0 to 100 scale, 0 is no effect, 100 is complete control) [18]: 0

C[C@@H](Nc1ncc(C(F)(F)F)c(N)n1)C1Cc2ccccc2C1 [Compound 13, N2-[(1R)-1-(2,3-dihydro-1H-inden-2-yl)ethyl]-5-(trifluoromethyl)-2,4-pyrimidinediamine]
Plant response rating, Barnyardgrass ([1]; 125 g ai/ha): 90
Plant response rating, Barnyardgrass ([1]; 500 g ai/ha): 100
Plant response rating, Kochia (kochia (Kochia scoparia) [2]; 125 g ai/ha): 100
Plant response rating, Kochia (kochia (Kochia scoparia) [2]; 500 g ai/ha): 100
Plant response rating, Ragweed ([3]; 125 g ai/ha): 100
Plant response rating, Ragweed ([3]; 500 g ai/ha): 100
Plant response rating, Ryegrass, Italian ([4]; 125 g ai/ha): 60
Plant response rating, Ryegrass, Italian ([4]; 500 g ai/ha): 100
Plant response rating, Foxtail, Giant ([5]; 125 g ai/ha): 100
Plant response rating, Foxtail, Giant ([5]; 500 g ai/ha): 100
Plant response rating, Pigweed ([6]; 125 g ai/ha): 100
Plant response rating, Pigweed ([6]; 500 g ai/ha): 100
pest or weed control at 125 g/ha ([7]; Echinochloa crus-galli, post-emergence, 240 h, 125 g ai/ha, read-out: Plant response rating, Barnyardgrass): 30%
pest or weed control at 500 g/ha ([7]; Echinochloa crus-galli, post-emergence, 240 h, 500 g ai/ha, read-out: Plant response rating, Barnyardgrass): 60%
pest or weed control at 125 g/ha (kochia (Kochia scoparia) [8]; Bassia scoparia, post-emergence, 240 h, 125 g ai/ha, read-out: Plant response rating, Kochia): 90%
pest or weed control at 500 g/ha (kochia (Kochia scoparia) [8]; Bassia scoparia, post-emergence, 240 h, 500 g ai/ha, read-out: Plant response rating, Kochia): 100%
pest or weed control at 125 g/ha ([9]; Ambrosia artemisiifolia, post-emergence, 240 h, 125 g ai/ha, read-out: Plant response rating, Ragweed): 30%
pest or weed control at 500 g/ha ([9]; Ambrosia artemisiifolia, post-emergence, 240 h, 500 g ai/ha, read-out: Plant response rating, Ragweed): 80%
pest or weed control at 125 g/ha ([10]; Lolium multiflorum, post-emergence, 240 h, 125 g ai/ha, read-out: Plant response rating, Ryegrass, Italian): 0%
pest or weed control at 500 g/ha ([10]; Lolium multiflorum, post-emergence, 240 h, 500 g ai/ha, read-out: Plant response rating, Ryegrass, Italian): 20%
pest or weed control at 125 g/ha ([11]; Setaria faberi, post-emergence, 240 h, 125 g ai/ha, read-out: Plant response rating, Foxtail, Giant): 80%
pest or weed control at 500 g/ha ([11]; Setaria faberi, post-emergence, 240 h, 500 g ai/ha, read-out: Plant response rating, Foxtail, Giant): 100%
pest or weed control at 125 g/ha ([12]; Amaranthus retroflexus, post-emergence, 240 h, 125 g ai/ha, read-out: Plant response rating, Pigweed): 100%
pest or weed control at 500 g/ha ([12]; Amaranthus retroflexus, post-emergence, 240 h, 500 g ai/ha, read-out: Plant response rating, Pigweed): 100%
plant injury at 125 g/ha ([13]; Triticum aestivum, post-emergence, 240 h, 125 g ai/ha, read-out: Plant response rating, Wheat): 0%
plant injury at 500 g/ha ([13]; Triticum aestivum, post-emergence, 240 h, 500 g ai/ha, read-out: Plant response rating, Wheat): 20%
Corn plant response rating (crop injury, 0 = no effect, 100 = complete kill) at 125 g/ha (corn (Zea mays); Zea mays, post-emergence, 240 h, 125 g ai/ha): 10%
Corn plant response rating (crop injury, 0 = no effect, 100 = complete kill) at 500 g/ha (corn (Zea mays); Zea mays, post-emergence, 240 h, 500 g ai/ha): 60%
pest or weed control at 125 g/ha ([14]; Alopecurus myosuroides, post-emergence, 240 h, 125 g ai/ha, read-out: Plant response rating, Blackgrass): 10%
pest or weed control at 500 g/ha ([14]; Alopecurus myosuroides, post-emergence, 240 h, 500 g ai/ha, read-out: Plant response rating, Blackgrass): 30%
pest or weed control at 125 g/ha ([15]; Galium, post-emergence, 240 h, 125 g ai/ha, read-out: Plant response rating, Galium): 80%
pest or weed control at 500 g/ha ([15]; Galium, post-emergence, 240 h, 500 g ai/ha, read-out: Plant response rating, Galium): 80%
plant injury at 250 g/ha (rice (Oryza sativa); Oryza sativa, 360 h, read-out: Plant response rating, Rice (0 to 100 scale, 0 is no effect, 100 is complete control)): 10%
pest or weed control at 250 g/ha ([16]; Cyperus difformis, 360 h, read-out: Plant response rating, Sedge, Umbrella (0 to 100 scale, 0 is no effect, 100 is complete control)): 95%
pest or weed control at 250 g/ha ([17]; Heteranthera limosa, 360 h, read-out: Plant response rating, Ducksalad (0 to 100 scale, 0 is no effect, 100 is complete control)): 75%
pest or weed control at 250 g/ha ([18]; Echinochloa crus-galli, 360 h, read-out: Plant response rating, Barnyardgrass (0 to 100 scale, 0 is no effect, 100 is complete control)): 90%

Cc1ccc2cc([C@@H](C)Nc3ncc(C(F)(F)F)c(N)n3)oc2c1 [Compound 14]
Plant response rating, Barnyardgrass ([1]; 125 g ai/ha): 90
Plant response rating, Barnyardgrass ([1]; 500 g ai/ha): 100
Plant response rating, Kochia (kochia (Kochia scoparia) [2]; 125 g ai/ha): 60
Plant response rating, Kochia (kochia (Kochia scoparia) [2]; 500 g ai/ha): 90
Plant response rating, Ragweed ([3]; 125 g ai/ha): 100
Plant response rating, Ragweed ([3]; 500 g ai/ha): 100
Plant response rating, Ryegrass, Italian ([4]; 125 g ai/ha): 0
Plant response rating, Ryegrass, Italian ([4]; 500 g ai/ha): 60
Plant response rating, Foxtail, Giant ([5]; 125 g ai/ha): 90
Plant response rating, Foxtail, Giant ([5]; 500 g ai/ha): 100
Plant response rating, Pigweed ([6]; 125 g ai/ha): 90
Plant response rating, Pigweed ([6]; 500 g ai/ha): 100
Plant response rating, Barnyardgrass ([7]; 125 g ai/ha): 10
Plant response rating, Barnyardgrass ([7]; 500 g ai/ha): 40
Plant response rating, Kochia (kochia (Kochia scoparia) [8]; 125 g ai/ha): 90
Plant response rating, Kochia (kochia (Kochia scoparia) [8]; 500 g ai/ha): 90
Plant response rating, Ragweed ([9]; 125 g ai/ha): 0
Plant response rating, Ragweed ([9]; 500 g ai/ha): 70
Plant response rating, Ryegrass, Italian ([10]; 125 g ai/ha): 0
Plant response rating, Ryegrass, Italian ([10]; 500 g ai/ha): 0
Plant response rating, Foxtail, Giant ([11]; 125 g ai/ha): 10
Plant response rating, Foxtail, Giant ([11]; 500 g ai/ha): 90
Plant response rating, Pigweed ([12]; 125 g ai/ha): 90
Plant response rating, Pigweed ([12]; 500 g ai/ha): 90
Plant response rating, Wheat ([13]; 125 g ai/ha): 0
Plant response rating, Wheat ([13]; 500 g ai/ha): 0
Plant response rating, Corn (corn (Zea mays); 125 g ai/ha): 10
Plant response rating, Corn (corn (Zea mays); 500 g ai/ha): 10
Plant response rating, Blackgrass ([14]; 125 g ai/ha): 30
Plant response rating, Blackgrass ([14]; 500 g ai/ha): 30
Plant response rating, Galium ([15]; 125 g ai/ha): 80
Plant response rating, Galium ([15]; 500 g ai/ha): 80
Plant response rating, Rice (0 to 100 scale, 0 is no effect, 100 is complete control) (rice (Oryza sativa)): 0
Plant response rating, Sedge, Umbrella (0 to 100 scale, 0 is no effect, 100 is complete control) [16]: 0
Plant response rating, Ducksalad (0 to 100 scale, 0 is no effect, 100 is complete control) [17]: 0
Plant response rating, Barnyardgrass (0 to 100 scale, 0 is no effect, 100 is complete control) [18]: 0
